# What was measured:
# [1] = test system: primary WT mouse splenic B cells; experiment: H2AX foci immunostaining in activated B-lymphocytes; assay type: cell-based; conditions: 100 nM
# Experimental: FIG. 15A depicts an analysis of primary WT (AID+/+, closed markers) and AID−/− (open markers) murine B cell proliferation under activating conditions (αCD40 and IL-4 on days 0 and 2) and treated with the indicated doses of C-1523 for 4 days. Measurement of cell proliferation was determined by Trypan Blue staining and counting of viable, non-staining, cells via hemocytometer. Data are represented as the mean cell count for each condition. FIG. 15B depicts data from experiments in which primary B cells from A were stained with PI on day 4 and analyzed via flow cytometry for the percentage of cells that were non-viable, PI-positive (PI+). FIG. 15C depicts RT-PCR analysis of AID expression in cultured human cell lines. Water (H2O) and RNA from HEK293T cells were employed as negative controls for template and AID expression, respectively, and human activated B lymphocyte RNA (Stim B) was used as a positive control. GAPDH expression was included as a loading control. […] Viability was determined by Trypan Blue staining and counting via hemocytometer. […] FIG. 15F depicts quantitation of foci observed in AID−/− and WT cells represented in FIG. 15E. […]
# To determine whether the cytotoxic effect of C-1523 in AID-expressing cells was associated with DNA damage overload, the accumulation of unrepaired AID-initiated DSBs was measured by H2AX immunoostaining, in activated mouse B-lymphocytes (FIGS. 15E, 15F). […]
# [2] = test system: MEC-2 cells; experiment: Viability of human B cell tumor cell line (Trypan Blue); assay type: cell-based
# Experimental: (§1) FIG. 15A depicts an analysis of primary WT (AID+/+, closed markers) and AID−/− (open markers) murine B cell proliferation under activating conditions (αCD40 and IL-4 on days 0 and 2) and treated with the indicated doses of C-1523 for 4 days. Measurement of cell proliferation was determined by Trypan Blue staining and counting of viable, non-staining, cells via hemocytometer. Data are represented as the mean cell count for each condition. FIG. 15B depicts data from experiments in which primary B cells from A were stained with PI on day 4 and analyzed via flow cytometry for the percentage of cells that were non-viable, PI-positive (PI+). FIG. 15C depicts RT-PCR analysis of AID expression in cultured human cell lines. Water (H2O) and RNA from HEK293T cells were employed as negative controls for template and AID expression, respectively, and human activated B lymphocyte RNA (Stim B) was used as a positive control. GAPDH expression was included as a loading control. FIG. 15D depicts viability analysis of CCRF-SB, MEC-1, and MEC-2 cells after 6 days in culture with the indicated concentrations of C-1523, 150 μM DIDS, or DMSO vehicle. Viability was determined by Trypan Blue staining and counting via hemocytometer. FIG. 15E depicts representative immunofluorescence images of phosphorylated γH2AX (green) and nuclei (DAPI, blue) in primary murine splenic B cells from AID−/− (left) or AID+/+ (WT, right) mice. Cells were activated with αCD40 and IL-4 and treated with 100 nM C-1523 for 3 d. Scale bars, 10 μM. FIG. 15F depicts quantitation of foci observed in AID−/− and WT cells represented in FIG. 15E. Data were grouped into categories of cells with low (1-2 foci per nucleus), moderate (3-10 foci per nucleus), or high (>10 foci per nucleus) amounts of DNA damage. Error bars represent the SEM for three independent experiments.
# (§2) FIG. 23 depicts graphs of viability analysis for human cancer cell lines treated with C-1523. The acute lymphoblastic leukemia (ALL) line CCRF-SB and the chronic lymphocytic leukemia lines MEC1 and MEC2 were treated with vehicle (DMSO) or 100 nM C-1523, and viability was measured by Tyrpan blue exclusion. All three lines express AID and are sensitive to C-1523 treatment.
# (§3) The effect of C-1523 on the viability of AID-expressing human B cell tumor cell lines was further tested ([…]). CCRF-SB is an acute lymphoblastic leukemia cell line derived from a buffy coat preparation (Foley et al., 1968). MEC-1 and MEC-2 are cell lines derived from a patient with chronic lymphocytic leukemia at two different timepoints (before and after fludarabine and rituximab therapy) (Stacchini et al., 1999). C-1523 was tested in these cell lines over a dose range from 1 to 1000 nM, in log increments, and compared to 150 μM DIDS. […] Biphasic or hormetic responses for small molecules can reflect a number of biochemical/biological mechanisms (Calabrese, 2013).
# (§4) Cell lines and cell culture. […] Immunofluorescence.
# [3] = test system: MEC-1 cells; experiment: as above; assay type: cell-based
# Experimental: as §1, §2, §3, §4
# [4] = test system: CCRF-SB cells; experiment: as above; assay type: cell-based
# Experimental: as §1, §2, §3, §4
# [5] = test system: AID-expressing mouse B-lymphocytes
# [6] = test system: AID−/− or p53−/− primary mouse B cells; experiment: Micronuclei assay; assay type: cell-based; conditions: 100 nM, 3 days
# [7] = test system: HEK293T cells; experiment: Sister chromatid exchange assay; assay type: cell-based, human; conditions: 100 nM, relative to DMSO vehicle
# Text: C-1523 inhibits Sister Chromatid Exchange. […] To directly measure the effect of C-1523 on RAD51-mediated homologous recombination, we measured sister chromatid exchange and HR repair of an endonuclease generated DSB. Sister chromatid exchange (SCE) is a RAD51-mediated homologous recombination event between replicated sister chromatids in replicative or post-replicative cells, and reflects repair of replication-associated DNA damage. SCE can be measured following differential chromatid labeling by BrdU incorporation (Latt and Schreck, 1980). SCE is known to occur at a high rate in HEK293T cells, with approximately 0.25 spontaneously occurring exchange events per chromosome (FIGS. 14A, 14C) (Londono-Vallejo et al., 2004).
# Propidium Iodide and flow cytometry.
smiles,measurement,setting,value
"CC(=O)Nc1ccc(/C=C/c2ccc(NC(=S)NC(C)C)cc2S(=O)(=O)O)c(S(=O)(=O)O)c1 [C-1523, (E)-5-acetamido-2-(4-(3-isopropylthioureido)-2-sulfonatostyryl)benzenesulfonate]",fraction of cells with supernumerary foci (3-10 per cell),[1],significant increase
same,H2AX foci,[1]; αCD40 and IL-4,accumulation of H2AX foci
same,acute side effects relative to DIDS,in vivo,no increased acute side effects
same,acute toxicity,in vivo,almost no acute toxicity
same,tolerance to prolonged drug exposure,single and multiple dose,excellent tolerance
same,sensitivity (viability),[2]; 100 nM,sensitive
same,viability response over dose range,"[2]; 1 to 1000 nM, 6 days",sensitive at all doses tested
same,sensitivity (viability),[3]; 100 nM,sensitive
same,viability reduction at highest dose,[3]; 1000 nM,less than that observed after treatment with 100 nM
same,concentration of greatest viability reduction,[3]; 1 to 1000 nM,100 nM
same,viability response over dose range,"[3]; 1 to 1000 nM, 6 days",dose-dependent viability response
same,sensitivity (viability),[4]; 100 nM,sensitive
same,viability reduction at highest dose,[4]; 1000 nM,less than that observed after treatment with 100 nM
same,concentration of greatest viability reduction,[4]; 1 to 1000 nM,100 nM
same,viability response over dose range,"[4]; 1 to 1000 nM, 6 days",dose-dependent viability response
same,concentration eliciting AID-specific cytotoxicity,[5],100 nM
same,rank among DIDS analogs tested,[5],most potent DIDS analog tested
same,AID+:AID− activity score: effect in AID+ cells versus corresponding AID- cells,[5]; 10 μM,roughly 6 fold
same,effectiveness relative to DIDS,[5]; Example 3 summary,1000 times
same,potency relative to DIDS,[5]; dose response data,at least 1500 times
same,fraction of micronuclei,[6],no increase in the fraction of micronuclei
same,median number of SCE events per chromosome,[7],significantly reduced

# Source: patent US10927075B2, “Compositions and methods relating to the treatment of cancer, autoimmune disease, and neurodegenerative disease” (THE JACKSON LABORATORY, priority 2014, dated 2021)
